Test results as given in ChEMBL document CHEMBL1121678, “Antitumor agents. 44. Bis(helenalinyl) esters and related derivatives as novel potent antileukemic agents” (1981).

Key:
Assay type in all cases: functional
[1] = tested on: Mus musculus; assay: Antileukemic activity of compound against the P-388 lymphocytic leukemic BDF1 male mice at 0.6(mg/kg)/day, administered intraperitoneally; 11/9.66 (Treated/control)
[2] = tested on: Mus musculus; assay: In vivo antileukemic activity against P-388 lymphocytic leukemia in BDF1 male mice at 60 mg/kg/day intraperitoneal dose expressed as T/C
[3] = tested on: Mus musculus; assay: Antileukemic activity of compound against the P-388 lymphocytic leukemic BDF1 male mice at 15(mg/kg)/day, administered intraperitoneally; 11.0/9.66 (Treated/control)
[4] = tested on: Mus musculus; assay: In vivo antileukemic activity against P-388 Lymphocytic Leukemia in BDF1 male mice at 60 mg/kg/day intraperitoneal dose expressed as T/C
[5] = tested on: Mus musculus; assay: In vivo antileukemic activity against P-388 Lymphocytic Leukemia in BDF1 male mice at 15(mg/kg)/day intraperitoneal dose expressed as T/C
[6] = tested on: Mus musculus; assay: Antileukemic activity of compound against the P-388 lymphocytic leukemic BDF1 male mice at 3(mg/kg)/day, administered intraperitoneally; 12.9/9.66 (Treated/control)
[7] = tested on: Mus musculus; assay: In vivo antileukemic activity against P-388 Lymphocytic Leukemia in BDF1 male mice at 25(mg/kg)/day intraperitoneal dose expressed as T/C
[8] = tested on: Mus musculus; assay: In vivo antileukemic activity against P-388 lymphocytic leukemia in BDF1 male mice at 8(mg/kg)/day intraperitoneal dose expressed as T/C
[9] = tested on: Mus musculus; assay: In vivo antileukemic activity against P-388 lymphocytic leukemia in BDF1 male mice at 3(mg/kg)/day intraperitoneal dose expressed as T/C
[10] = tested on: Mus musculus; assay: Antileukemic activity of compound against the P-388 lymphocytic leukemic BDF1 male mice at 25(mg/kg)/day, administered intraperitoneally; 12.3/9.66 (Treated/control)
[11] = tested on: Mus musculus; assay: Antileukemic activity of compound against the P-388 lymphocytic leukemic BDF1 male mice at 60 mg/kg/day, administered intraperitoneally; 3.0/9.66 (Treated/control); conditions: route intraperitoneal
[12] = tested on: Mus musculus; assay: Antileukemic activity of compound against the P-388 lymphocytic leukemic BDF1 male mice at 15(mg/kg)/day, administered intraperitoneally; 11.9/9.66 (Treated/control)
[13] = tested on: Mus musculus; assay: Antileukemic activity of compound against the P-388 lymphocytic leukemic BDF1 male mice at 8(mg/kg)/day, administered intraperitoneally; 15.7/9.66 (Treated/control)
[14] = tested on: Mus musculus; assay: Antileukemic activity of compound against the P-388 lymphocytic leukemic BDF1 male mice at 2(mg/kg)/day, administered intraperitoneally; 11.6/9.66 (Treated/control)
[15] = tested on: Mus musculus; assay: In vivo antileukemic activity against P-388 lymphocytic leukemia in BDF1 male mice at 30(mg/kg)/day intraperitoneal dose expressed as T/C
[16] = tested on: Mus musculus; assay: In vivo antileukemic activity against P-388 lymphocytic leukemia in BDF1 male mice at 15(mg/kg)/day intraperitoneal dose expressed as T/C
[17] = tested on: Mus musculus; assay: Antileukemic activity of compound against the P-388 lymphocytic leukemic BDF1 male mice at 4(mg/kg)/day, administered intraperitoneally; 11.0/9.66 (Treated/control)
[18] = tested on: Mus musculus; assay: Antileukemic activity of compound against the P-388 lymphocytic leukemic BDF1 male mice at 15(mg/kg)/day, administered intraperitoneally; 13.6/9.66 (Treated/control)
[19] = tested on: Mus musculus; assay: Antileukemic activity of compound against the P-388 lymphocytic leukemic BDF1 male mice at 60 mg/kg/day, administered intraperitoneally; 12.6/9.66 (Treated/control); conditions: route intraperitoneal
[20] = tested on: Mus musculus; assay: In vivo antileukemic activity against P-388 lymphocytic leukemia in BDF1 male mice at 4(mg/kg)/day intraperitoneal dose expressed as T/C
[21] = tested on: Mus musculus; assay: In vivo antileukemic activity against P-388 lymphocytic leukemia in BDF1 male mice at 2(mg/kg)/day intraperitoneal dose expressed as T/C
[22] = tested on: Mus musculus; assay: Antileukemic activity of compound against the P-388 lymphocytic leukemic BDF1 male mice at 30(mg/kg)/day, administered intraperitoneally; 15.2/9.66 (Treated/control)
[23] = tested on: Mus musculus; assay: Antileukemic activity of compound against the P-388 lymphocytic leukemic BDF1 male mice at 0.6(mg/kg)/day, administered intraperitoneally; 11.6/9.66 (Treated/control)
[24] = tested on: Mus musculus; assay: In vivo antileukemic activity against P-388 lymphocytic leukemia in BDF1 male mice at 25(mg/kg)/day intraperitoneal dose expressed as T/C
[25] = tested on: Mus musculus; assay: Antileukemic activity of compound against the P-388 lymphocytic leukemic BDF1 male mice at 25(mg/kg)/day, administered intraperitoneally; 13.3/9.66 (Treated/control)
[26] = tested on: Mus musculus; assay: Antileukemic activity of compound against the P-388 lymphocytic leukemic BDF1 male mice at 15(mg/kg)/day, administered intraperitoneally; 11.4/9.66 (Treated/control)
[27] = tested on: Mus musculus; assay: Antileukemic activity of compound against the P-388 lymphocytic leukemic BDF1 male mice at 8(mg/kg)/day, administered intraperitoneally; […]/[…] (Treated/control)
[28] = tested on: Mus musculus; assay: In vivo antileukemic activity against P-388 lymphocytic leukemia in BDF1 male mice at 5(mg/kg)/day intraperitoneal dose expressed as T/C
[29] = tested on: Mus musculus; assay: Antileukemic activity of compound against the P-388 lymphocytic leukemic BDF1 male mice at 5(mg/kg)/day, administered intraperitoneally; 11.8/9.66 (Treated/control)
[30] = tested on: Mus musculus; assay: Antileukemic activity of compound against the P-388 lymphocytic leukemic BDF1 male mice at 15(mg/kg)/day, administered intraperitoneally; 11.1/9.66 (Treated/control)

For `CCOC(=O)CC(=O)OCC` [MALONIC ACID DIETHYL ESTER], the “Average survival (days)” value [1] was 11 and the T/C [2] was 114%.

For `C=C1C(=O)O[C@@H]2C[C@@H](C)[C@@H]3CCC(=O)[C@@]3(C)[C@@H](OC(=O)CC(=O)OCC)[C@H]12`, the “Average survival (days)” value [3] was 11 and the T/C [2] was 114%.

With `C=C1C(=O)O[C@@H]2C[C@@H](C)[C@@H]3C=CC(=O)[C@@]3(C)[C@@H](O)[C@H]12` [HELENALIN] the T/C [4] was 31%, the T/C [5] was 123% and the “Average survival (days)” value [6] was 12.9. The T/C [7] was 127%, the T/C [8] was 162% and the T/C [9] was 134%. The “Average survival (days)” value [10] was 12.3, the “Average survival (days)” value [11] was 3 and the “Average survival (days)” value [12] was 11.9. For the same compound, the “Average survival (days)” value [13] was 15.7.

In the case of `C=C1C(=O)O[C@@H]2C[C@@H](C)[C@@H]3CCC(=O)[C@@]3(C)[C@@H](OC(=O)CCC(=O)O[C@H]3[C@@H]4C(=C)C(=O)O[C@@H]4C[C@@H](C)[C@@H]4CCC(=O)[C@]43C)[C@H]12`, the “Average survival (days)” value [14] is reported as 11.6, the T/C [15] is reported as 157% and the T/C [16] is reported as 141%. For the same compound, the “Average survival (days)” value [17] was 11, the T/C [2] was 130% and the “Average survival (days)” value [18] was 13.6. For the same compound, the “Average survival (days)” value [19] was 12.6, the T/C [20] was 114% and the T/C [21] was 120%. The “Average survival (days)” value [22] was 15.2.

For `CCOC(=O)CCC(=O)OCC` [SUCCINIC ACID DIETHYL ESTER], the “Average survival (days)” value [23] was 11.6 and the T/C [2] was 120%.

For `C[C@@H]1C[C@H]2OC(=O)[C@@H](C)[C@H]2[C@H](O)[C@]2(C)C(=O)C=C[C@@H]12`, the T/C [24] was 138%, the “Average survival (days)” value [25] was 13.3 and the T/C [16] was 118%. For the same compound, the “Average survival (days)” value [26] was 11.4, the T/C [8] was 111% and the “Average survival (days)” value [27] was 10.7.

In the case of `CC1C(=O)O[C@@H]2C[C@@H](C)[C@@H]3CCC(=O)[C@@]3(C)[C@@H](OC(=O)CC(=O)O[C@H]3[C@@H]4C(C)C(=O)O[C@@H]4C[C@@H](C)[C@@H]4CCC(=O)[C@]43C)[C@H]12` (stereo partly specified), the T/C [28] is reported as 122%, the T/C [16] is reported as 115% and the “Average survival (days)” value [29] is reported as 11.8. The “Average survival (days)” value [30] was 11.1.
